ChEMBL document CHEMBL1151258, “New cytotoxic cembranes from the sea pen Gyrophyllum sibogae” (2004)

Assays:
Type in all cases: functional
Conditions in all cases: read-out: ED50 (the source's name)
K562 = test: Cytotoxicity against human K562 cells
HT-29 = test: Cytotoxicity against human HT-29 cells
DU-145 = test: Cytotoxicity against human DU145 cells
[1] = Cytotoxicity against human IGROV cells

C/C1=C/C=C(\C(C)C)C(=O)[C@@H](O)[C@H](C)CCC(=O)[C@H](CO)CCC1
EC50 (K562): 62.7 nM
EC50 (HT-29): 14.5 nM
EC50 (DU-145): 82 nM
EC50 [1]: 90.3 nM
